≈ marks a conversion by molar mass, not a printed value. Like-named read-outs stand apart in the source and are kept apart here.
Experiments:
[1] = tested on: Escherichia coli EC14; experiment: MIC, standard agar-dilution assay; assay type: cell-based; settings: Escherichia coli EC14; agar dilution; read-out: MIC
Protocol: (§1) The MIC's in Table II were determined by standard agar-dilution assays. The MIC's in Table III were obtained using conventional broth-dilution microtiter tests.

[2] = tested on: Haemophilus influenzae 76; experiment: MIC, standard agar-dilution assay; assay type: cell-based; settings: Haemophilus influenzae 76; Ampicillin-resistant strain; agar dilution; read-out: MIC
Protocol: as §1

[3] = tested on: Haemophilus influenzae C.L.; experiment: MIC, standard agar-dilution assay; assay type: cell-based; settings: Haemophilus influenzae C.L.; Ampicillin-sensitive strain; agar dilution; read-out: MIC
Protocol: as §1

[4] = tested on: Klebsiella pneumoniae X68; experiment: MIC, standard agar-dilution assay; assay type: cell-based
Protocol: as §1

[5] = tested on: Pseudomonas aeruginosa X239; experiment: MIC, standard agar-dilution assay; assay type: cell-based; settings: Pseudomonas aeruginosa X239; agar dilution; read-out: MIC
Protocol: as §1

[6] = tested on: Staphylococcus aureus S13E; experiment: MIC, standard agar-dilution assay; assay type: cell-based
Protocol: as §1

[7] = tested on: Staphylococcus aureus V41; experiment: MIC, standard agar-dilution assay; assay type: cell-based; settings: Staphylococcus aureus V41; Penicillin-resistant strain; agar dilution; read-out: MIC
Protocol: as §1

[8] = tested on: Staphylococcus aureus X1.1; experiment: MIC, standard agar-dilution assay; assay type: cell-based; settings: Staphylococcus aureus X1.1; agar dilution; read-out: MIC
Protocol: as §1

[9] = tested on: Staphylococcus aureus X400; experiment: MIC, standard agar-dilution assay; assay type: cell-based; settings: Staphylococcus aureus X400; Methicillin-resistant strain; agar dilution; read-out: MIC
Protocol: as §1

[10] = tested on: Staphylococcus epidermidis 222; experiment: MIC, standard agar-dilution assay; assay type: cell-based; settings: Staphylococcus epidermidis 222; agar dilution; read-out: MIC
Protocol: as §1

[11] = tested on: Staphylococcus epidermidis EPI1; experiment: MIC, standard agar-dilution assay; assay type: cell-based; settings: Staphylococcus epidermidis EPI1; agar dilution; read-out: MIC
Protocol: as §1

[12] = tested on: Streptococcus faecalis 2041; experiment: MIC, standard agar-dilution assay; assay type: cell-based; settings: Enterococcus faecalis; Streptococcus faecalis 2041; agar dilution; read-out: MIC
Protocol: as §1

[13] = tested on: Streptococcus faecalis X66; experiment: MIC, standard agar-dilution assay; assay type: cell-based; settings: Enterococcus faecalis; Streptococcus faecalis X66; agar dilution; read-out: MIC
Protocol: as §1

[14] = tested on: Streptococcus pneumoniae Park I; experiment: MIC, standard agar-dilution assay; assay type: cell-based; settings: Streptococcus pneumoniae Park I; agar dilution; read-out: MIC
Protocol: as §1

[15] = tested on: Streptococcus pyogenes C203; experiment: MIC, standard agar-dilution assay; assay type: cell-based; settings: Streptococcus pyogenes C203; agar dilution; read-out: MIC
Protocol: as §1

[16] = tested on: Bordetella bronchiseptica; experiment: MIC, conventional broth-dilution microtiter test; assay type: cell-based
Protocol: as §1

[17] = tested on: Mycoplasma gallisepticum 15E; experiment: MIC, conventional broth-dilution microtiter test; assay type: cell-based; settings: Mycoplasmoides gallisepticum
Protocol: as §1

[18] = tested on: Mycoplasma gallisepticum 29C; experiment: MIC, conventional broth-dilution microtiter test; assay type: cell-based; settings: Mycoplasmoides gallisepticum
Protocol: as §1

[19] = tested on: Mycoplasma gallisepticum 36H; experiment: MIC, conventional broth-dilution microtiter test; assay type: cell-based; settings: Mycoplasmoides gallisepticum
Protocol: as §1

[20] = tested on: Mycoplasma hyopneumoniae S5972; experiment: MIC, conventional broth-dilution microtiter test; assay type: cell-based; settings: Mesomycoplasma hyopneumoniae
Protocol: as §1

[21] = tested on: Mycoplasma hyorhinis 29E; experiment: MIC, conventional broth-dilution microtiter test; assay type: cell-based
Protocol: as §1

[22] = tested on: Mycoplasma synoviae 40A; experiment: MIC, conventional broth-dilution microtiter test; assay type: cell-based; settings: Mycoplasmopsis synoviae
Protocol: as §1

[23] = tested on: Pasteurella hemolytica 22C; experiment: MIC, conventional broth-dilution microtiter test; assay type: cell-based
Protocol: as §1

[24] = tested on: Pasteurella hemolytica 23C; experiment: MIC, conventional broth-dilution microtiter test; assay type: cell-based
Protocol: as §1

[25] = tested on: Pasteurella hemolytica 41D; experiment: MIC, conventional broth-dilution microtiter test; assay type: cell-based
Protocol: as §1

[26] = tested on: Pasteurella multocida 17E; experiment: MIC, conventional broth-dilution microtiter test; assay type: cell-based; settings: Bovine isolate
Protocol: as §1

[27] = tested on: Pasteurella multocida 22A; experiment: MIC, conventional broth-dilution microtiter test; assay type: cell-based
Protocol: as §1

[28] = tested on: Pasteurella multocida 40G; experiment: MIC, conventional broth-dilution microtiter test; assay type: cell-based
Protocol: as §1

[29] = tested on: Pasteurella multocida 60A; experiment: MIC, conventional broth-dilution microtiter test; assay type: cell-based; settings: Avian isolate
Protocol: as §1

[30] = tested on: Pasteurella multocida 68C; experiment: MIC, conventional broth-dilution microtiter test; assay type: cell-based
Protocol: as §1

[31] = tested on: Staphylococcus aureus; experiment: MIC, conventional broth-dilution microtiter test; assay type: cell-based
Protocol: as §1

[32] = tested on: Streptococcus sp. 19F; experiment: MIC, conventional broth-dilution microtiter test; assay type: cell-based
Protocol: as §1

[33] = tested on: Streptococcus pyogenes C203; experiment: ED50 in mice experimentally infected with S. pyogenes C203; assay type: in vivo; settings: two doses given 1 and 4 hours post-infection, dose protecting 50% of the test animals
Protocol: The formula 1 compounds have shown in vivo antimicrobial activity against experimentally-induced infections in laboratory animals. When two doses of test compound were administered to mice experimentally infected with S. pyogenes C203, the activity observed was measured as an ED₅₀ value [effective dose in mg/kg to protect 50% of the test animals: see Warren Wick, et 5 al., J. Bacteriol. 81, 233-235 (1961)].

[34] = Klebsiella pneumoniae X68, agar dilution, read-out: MIC
[35] = C203, mice, oral, read-out: ED50 Oral
[36] = C203, sc, mice, subcutaneous, read-out: ED50 Subcutaneous

SMILES	MIC [1]	MIC [2]	MIC [3]	MIC [4, 34]	MIC [5]	MIC [6]	MIC [7]	MIC [8]	MIC [9]	MIC [10]	MIC [11]	MIC [12]	MIC [13]	MIC [14]	MIC [15]	MIC [16]	MIC [17]	MIC [18]	ED50 [33, 35]	ED50 [33, 36]	other results
CCC1OC(=O)CC(O)C(C)C(OC2OC(C)C(O)C(N(C)C)C2O)C(CCOc2ccccc2)CC(C)C(=O)C=CC(C)=CC1COC1OC(C)C(OC(C)=O)C(OC)C1OC (centres unmarked) [Compound 2, 4ʹʹ-O-Acetyl-20-DH-20-O-phenyl-desmycosin]	> 128 µg/mL	128 µg/mL (≈ 143 µM)	128 µg/mL (≈ 143 µM)	> 128 µg/mL	> 128 µg/mL	2 µg/mL (≈ 2.24 µM)	2 µg/mL (≈ 2.24 µM)	2 µg/mL (≈ 2.24 µM)	2 µg/mL (≈ 2.24 µM)	1 µg/mL (≈ 1.12 µM)	2 µg/mL (≈ 2.24 µM)	32 µg/mL (≈ 35.9 µM)	16 µg/mL (≈ 17.9 µM)	2 µg/mL (≈ 2.24 µM)	1 µg/mL (≈ 1.12 µM)	> 50 µg/mL	50 µg/mL (≈ 56 µM)	0.78 µg/mL (≈ 0.874 µM)	10.9 mg/kg	4.46 mg/kg	MIC [19]: 50 µg/mL (≈ 56 µM); MIC [20]: 25 µg/mL (≈ 28 µM); MIC [21]: 50 µg/mL (≈ 56 µM); MIC [22]: 3.12 µg/mL (≈ 3.5 µM); MIC [23]: > 50 µg/mL; MIC [24]: 50 µg/mL (≈ 56 µM); MIC [25]: > 50 µg/mL; MIC [26]: 50 µg/mL (≈ 56 µM); MIC [27]: > 50 µg/mL; MIC [28]: 50 µg/mL (≈ 56 µM); MIC [29]: > 50 µg/mL; MIC [30]: 25 µg/mL (≈ 28 µM); MIC [31]: 1.56 µg/mL (≈ 1.75 µM); MIC [32]: 12.5 µg/mL (≈ 14 µM)
CCC1OC(=O)CC(O)C(C)C(OC2OC(C)C(O)C(N(C)C)C2O)C(CCOc2ccccc2)CC(C)C(=O)C=CC(C)=CC1COC1OC(C)C(OC(=O)CN2CCCC2)C(OC)C1OC (centres unmarked) [Compound 13, 20-DH-20-O-Phenyl-4ʹʹ-O-(pyrrolidin-1-ylacetyl)-desmycosin]	> 128 µg/mL	32 µg/mL (≈ 33.3 µM)	32 µg/mL (≈ 33.3 µM)		> 128 µg/mL	1 µg/mL (≈ 1.04 µM)	1 µg/mL (≈ 1.04 µM)	0.5 µg/mL (≈ 0.52 µM)	1 µg/mL (≈ 1.04 µM)	0.5 µg/mL (≈ 0.52 µM)	1 µg/mL (≈ 1.04 µM)	16 µg/mL (≈ 16.6 µM)	16 µg/mL (≈ 16.6 µM)	2 µg/mL (≈ 2.08 µM)	1 µg/mL (≈ 1.04 µM)	> 50 µg/mL	50 µg/mL (≈ 52 µM)	1.56 µg/mL (≈ 1.62 µM)	24 mg/kg	10 mg/kg	MIC ([4]; Klebsiella pneumoniae, X68): > 128 µg/mL; MIC [19]: 50 µg/mL (≈ 52 µM); MIC [20]: > 50 µg/mL; MIC [23]: > 50 µg/mL; MIC [24]: 50 µg/mL (≈ 52 µM); MIC [25]: > 50 µg/mL; MIC [26]: 50 µg/mL (≈ 52 µM); MIC [27]: 50 µg/mL (≈ 52 µM); MIC [28]: 25 µg/mL (≈ 26 µM); MIC [29]: 50 µg/mL (≈ 52 µM); MIC [30]: 25 µg/mL (≈ 26 µM); MIC [31]: 3.12 µg/mL (≈ 3.25 µM); MIC [32]: 6.25 µg/mL (≈ 6.5 µM)
CCC1OC(=O)CC(O)C(C)C(OC2OC(C)C(O)C(N(C)C)C2O)C(CCOc2ccccc2)CC(C)C(=O)C=CC(C)=CC1COC1OC(C)C(OC(=O)CN2CCN(C)CC2)C(OC)C1OC (centres unmarked) [Compound 15, 4ʹʹ-O-[(4-Methyl-piperazin-1-yl)acetyl]-20-DH-20-O-phenyl-desmycosin]	> 128 µg/mL	128 µg/mL (≈ 129 µM)	128 µg/mL (≈ 129 µM)	> 128 µg/mL	> 128 µg/mL	4 µg/mL (≈ 4.04 µM)	4 µg/mL (≈ 4.04 µM)	4 µg/mL (≈ 4.04 µM)	4 µg/mL (≈ 4.04 µM)	4 µg/mL (≈ 4.04 µM)	8 µg/mL (≈ 8.08 µM)	16 µg/mL (≈ 16.2 µM)	16 µg/mL (≈ 16.2 µM)	1 µg/mL (≈ 1.01 µM)	2 µg/mL (≈ 2.02 µM)				29 mg/kg	> 10 mg/kg	

Reference: patent publication EP0262903A2, “New acyl derivatives of 20-modified tylosin and desmycosin compounds” (priority 1986, dated 1988)
